Laboratory results taken from ChEMBL document CHEMBL4715854, “Discovery of Roblitinib (FGF401) as a Reversible-Covalent Inhibitor of the Kinase Activity of Fibroblast Growth Factor Receptor 4” (J Med Chem, 2020).
Converted amounts (≈) assume the structure as drawn.

Experiments:
[1] = Half-life in Crl:CD (SD) rat at 1 mg/kg, iv or 3 mg/kg, po measured upto 24 hrs by LC-MS/MS analysis; assay type: ADME, organism-based; conditions: in vivo
[2] = Metabolic stability in rat liver S9 fraction assessed as parent compound remaining at 1 uM incubated for 60 mins in presence of NADPH by HPLC/MS analysis; assay type: ADME, subcellular; conditions: read-out: Stabilty
[3] = Metabolic stability in rat blood at 1 uM assessed as parent compound remaining incubated for 60 mins by HPLC/MS analysis; assay type: ADME, tissue-based; conditions: read-out: Stabilty
[4] = Drug metabolism in rat liver microsomes assessed as C-hydroxylation of THN mediated M2 metabolite formation incubated for 60 mins by HPLC/MS analysis; assay type: ADME, Microsome; conditions: 1 h
[5] = Lipophilicity, log D of the compound in 1-octanol at pH 7.4 by potentiometric titration method; assay type: physicochemical
[6] = AUC in Crl:CD (SD) rat at 3 mg/kg, po measured upto 24 hrs by LC-MS/MS analysis; assay type: ADME, organism-based; design: route oral, dose 3 mg/kg, time <=24; conditions: in vivo
[7] = Permeability of the compound in human Caco-2 cells assessed as compound recovery at 10 uM measured after 2 hrs by LC/MS/MS analysis; assay type: ADME, cell-based; conditions: read-out: Drug recovery
[8] = Drug metabolism in rat liver microsomes assessed as glucuronidation by measuring (2S,3S,4S,5R,6R)-6-((8-(5-cyanopyridin-2-ylcarbamoyl)-5,6,7,8-tetrahydro-1,8-naphthyridin-2-yl)methoxy)-3,4,5-trihydroxytetrahydro-2H-pyran-2-carboxylic acid metabolite formation incubated for 60 mins by HPLC/MS analysis; assay type: ADME, Microsome; conditions: 1 h
[9] = Metabolic stability in rat liver S9 fraction at 1 uM assessed as parent compound remaining incubated for 60 mins by HPLC/MS analysis; assay type: ADME, subcellular; conditions: read-out: Stabilty
[10] = Volume of distribution at steady state in Crl:CD (SD) rat at 1 mg/kg, iv or 3 mg/kg, po measured upto 24 hrs by LC-MS/MS analysis; assay type: ADME, organism-based; conditions: in vivo, read-out: Vdss
[11] = Oral bioavailability in Crl:CD (SD) rat at 3 mg/kg measured upto 24 hrs by LC-MS/MS analysis; assay type: ADME, organism-based; conditions: in vivo; for bioavailability: Crl:CD (SD)
[12] = Drug metabolism in rat feces assessed as reduction of aldehyde group measured after 20 hrs incubated under anaerobic condition measured by LC-MS analysis; assay type: ADME, tissue-based
[13] = Drug metabolism in human liver microsome assessed as reduction of aldehyde group at 10 mM measured after 15 mins in presence of NADPH by LC-MS analysis; assay type: ADME; conditions: microsomes, 10000 µM
[14] = Drug metabolism in rat blood assessed as reduction of aldehyde group measured at 1 uM within 1 hr by LC-MS/MS analysis; assay type: ADME, tissue-based; conditions: read-out: Drug metabolism
[15] = Drug metabolism in rat liver microsomes assessed as C-hydroxylation of THN mediated M3 metabolite formation incubated for 60 mins by HPLC/MS analysis; assay type: ADME, Microsome; conditions: 1 h
[16] = AUC in Crl:CD (SD) rat at 1 mg/kg, iv formulated in PEG200/NMP measured upto 24 hrs by LC-MS/MS analysis; assay type: ADME, organism-based; design: route intravenous, dose 1 mg/kg, time <=24; conditions: in vivo
[17] = Drug metabolism in rat liver microsome assessed as reduction of aldehyde group at 10 mM measured after 15 mins in presence of NADPH by LC-MS analysis; assay type: ADME; conditions: microsomes, 10000 µM
[18] = Metabolic stability in rat liver microsomes assessed as parent compound remaining incubated for 60 mins by HPLC/MS analysis; assay type: ADME, Microsome; conditions: read-out: Stabilty
[19] = Metabolic stability in rat plasma assessed as parent compound remaining at 1 uM incubated for 60 mins by HPLC/MS analysis; assay type: ADME, cell-free; conditions: read-out: Stabilty
[20] = Clearance in Crl:CD (SD) rat at 1 mg/kg, iv or 3 mg/kg, po measured up to 24 hrs by LC-MS/MS analysis; assay type: ADME, organism-based; conditions: in vivo
[21] = Clearance in C57BL/6 mouse at 0.5 mg/kg, iv measured up to 24 hrs by LC-MS/MS analysis; assay type: ADME, organism-based; conditions: in vivo
[22] = AUC in C57BL/6 mouse at 0.5 mg/kg, iv measured up to 24 hrs by LC-MS/MS analysis; assay type: ADME, organism-based; design: route intravenous, dose 0.5 mg/kg, time <=24; conditions: in vivo
[23] = AUC (0 to 24 hrs) in Crl:CD (SD) rat at 30 mg/kg, po qd treated for 1 day measured by LC-MS/MS analysis; assay type: ADME, organism-based; design: route oral, time 1 day, dose 30 mg/kg; conditions: in vivo
[24] = Volume of distribution at steady state in Beagle dog at 0.1 mg/kg, iv or 0.3 mg/kg, po by LC-MS/MS analysis; assay type: ADME, organism-based, Canis lupus familiaris; conditions: in vivo, read-out: Vdss
[25] = AUC (0 to 24 hrs) in Crl:CD (SD) rat at 100 mg/kg, po qd treated for 1 day measured by LC-MS/MS analysis; assay type: ADME, organism-based; design: route oral, time 1 day, dose 100 mg/kg; conditions: in vivo
[26] = Plasma concentration in mouse xenografted with human Huh7 cells at 30 mg/kg, po BID administered for 14 days measured 12 hrs post-last dose; assay type: ADME, organism-based; conditions: time 14 day
[27] = Oral bioavailability in Beagle dog at 0.3 mg/kg by LC-MS/MS analysis; assay type: ADME, organism-based, Canis lupus familiaris; conditions: in vivo, 0.3 mg/kg
[28] = Drug absorption in Sprague-Dawley rat at 10 to 100 mg/kg, po qd for 10 days by LC-MS/MS analysis; assay type: ADME, organism-based; conditions: in vivo, 240 h, dose 10-100 mg/kg, time 10 day
[29] = AUC (0 to 24 hrs) in Crl:CD (SD) rat at 10 mg/kg, po qd treated for 1 day measured by LC-MS/MS analysis; assay type: ADME, organism-based; design: route oral, dose 10 mg/kg, time 1 day; conditions: in vivo
[30] = Thermodynamic solubility of compound in phosphate buffer at pH 6.8 measured after 15 mins by shake-flask method based LC-HRMS analysis; assay type: physicochemical; conditions: read-out: Therm_solubility
[31] = AUC in Beagle dog at 0.3 mg/kg, po by LC-MS/MS analysis; assay type: ADME, organism-based, Canis lupus familiaris; design: dose 0.3 mg/kg; conditions: in vivo
[32] = Volume of distribution at steady state in C57BL/6 mouse at 0.5 mg/kg, iv measured up to 24 hrs by LC-MS/MS analysis; assay type: ADME, organism-based; conditions: in vivo, read-out: Vdss
[33] = Half-life in Beagle dog at 0.1 mg/kg, iv or 0.3 mg/kg, po by LC-MS/MS analysis; assay type: ADME, organism-based, Canis lupus familiaris; conditions: in vivo
[34] = AUC in Beagle dog at 0.1 mg/kg, iv by LC-MS/MS analysis; assay type: ADME, organism-based, Canis lupus familiaris; design: dose 0.1 mg/kg; conditions: in vivo
[35] = Half-life in C57BL/6 mouse at 0.5 mg/kg, iv measured up to 24 hrs by LC-MS/MS analysis; assay type: ADME, organism-based; conditions: in vivo
[36] = Dose normalized AUC in Crl:CD (SD) rat at 1 mg/kg, iv measured up to 24 hrs by LC-MS/MS analysis; assay type: ADME, organism-based; conditions: in vivo
[37] = Tmax in Sprague-Dawley rat at 10 to 100 mg/kg, po qd for 10 days by LC-MS/MS analysis; assay type: ADME, organism-based; conditions: in vivo, dose 10-100 mg/kg, time 10 day
[38] = AUC (0 to 12 hrs) in C57BL/6 mouse at 30 mg/kg, po BID treated for 6 days measured by LC-MS/MS analysis; assay type: ADME, organism-based; design: route oral, dose 30 mg/kg, time 6 day; conditions: in vivo
[39] = Dose normalized AUC in Crl:CD (SD) rat at 3 mg/kg, po measured up to 24 hrs by LC-MS/MS analysis; assay type: ADME, organism-based; conditions: in vivo
[40] = Oral bioavailability in Crl:CD (SD) rat at 3 mg/kg administered as nanosuspension formulated in CMC-5/Tween 80 measured up to 24 hrs by LC-MS/MS analysis; assay type: ADME, organism-based; conditions: in vivo

N#Cc1ccc(NC(=O)N2CCCc3ccc(C=O)nc32)nc1
half-life [1]: 1.3 h | remaining at 1 h, 1 µM [2]: 1% | remaining at 1 h, 1 µM [3]: 22% | Drug metabolism [4]: Metabolite_Detected | logD [5]: 2.9 | AUC [6]: 0.054 µM·h | recovery at 2 h, 10 µM [7]: < 10% | Drug metabolism [8]: Metabolite_Detected | remaining at 1 h, 1 µM [9]: 61% | Vd [10]: 3.4 L/kg | F ([11]; 3 mg/kg, 24 h): 4% | Drug metabolism [12]: Metabolite_Detected | Drug metabolism [13]: Metabolite_Detected | metabolised at 1 h, 1 µM [14]: > 50% | Drug metabolism [15]: Metabolite_Detected | AUC [16]: 1.232 µM·h | Drug metabolism [17]: Metabolite_Detected | remaining at 1 h [18]: 7% | remaining at 1 h, 1 µM [19]: 100% | clearance [20]: 44 mL/min/kg

CC(C)Oc1cc(NC(=O)N2CCCc3cc(CN4CCCC4=O)c(C=O)nc32)ncc1C#N
half-life [1]: 14.2 h | clearance [21]: 8 mL/min/kg | AUC at 24 h [22]: 4.54 µM·h | AUC at 24 h [23]: 5400 ng·h/mL | Vd [24]: 1.1 L/kg | AUC at 24 h [25]: 18700 ng·h/mL | concentration at 336 h [26]: 500 nM | F [27]: 25% | Drug absorption [28]: Active | AUC at 24 h [29]: 2830 ng·h/mL | Vd [10]: 7.2 L/kg | bioavailability [11]: 33% | solubility thermodynamic at […] [30]: < 6 µM | AUC [31]: 5.05 µM·h | Vd [32]: 1.4 L/kg | half-life [33]: 8.1 h | AUC [34]: 20.082 µM·h | half-life [35]: 5.2 h | AUC/dose [36]: 1768 nM·h | Tmax [37]: 2 h | AUC at 144 h [38]: 8250 ng·h/mL | clearance [20]: 21 mL/min/kg | AUC/dose [39]: 587 nM·h

O=Cc1ccc2c(n1)N(C(=O)Nc1ccc(C(F)(F)F)cn1)CCC2
logD [5]: 4.2 | recovery at 2 h, 10 µM [7]: < 10% | solubility thermodynamic at […] [30]: 4.9 µM (≈ 1.72 µg/mL) | Drug metabolism [13]: Metabolite_Detected | Drug metabolism [17]: Metabolite_Detected

COCCNc1cc(NC(=O)N2CCCc3cc(C(F)F)c(C=O)nc32)ncc1C#N
half-life [1]: 2.3 h | recovery at 2 h, 10 µM [7]: < 10% | Vd [10]: 4.7 L/kg | bioavailability [11]: 7% | solubility thermodynamic at […] [30]: < 6 µM | bioavailability [40]: 80% | Drug metabolism [13]: Metabolite_Detected | AUC/dose [36]: 964 nM·h | Drug metabolism [17]: Metabolite_Detected | clearance [20]: 40 mL/min/kg | AUC/dose [39]: 774 nM·h
